According to patent US10544190B2, “Peptide that supresses binding of beta-amyloid and rage” (ENSOL BIOSCIENCES INC., priority 2016, dated 2020):
Where a SMILES comes first, the peptide text is derived from it. Where no end group is shown, it is not given here.

Assays:
beta-amyloid 1-42 [1] = test: Inhibition of entry of beta-amyloid 1-42 into brain II (ELISA of brain); type: in vivo; conditions: ICR mice, peptide 25 mg/kg intraperitoneally; for Beta-amyloid 1-42 concentration in brain: 20 min before i.v. 25 μM beta-amyloid 1-42, control group 60.8 ± 14.8, normal group 0.0 ± 11.9
Experimental: Based on the test results of Example 1, the following test was conducted in order to evaluate whether Example 2 and Comparative Examples 1 and 2, in addition to Example 1, are effective at inhibiting the entry of beta-amyloid 1-42 into the brain.
Specifically, 1 mg ofbeta-amyloid 1-42 (American Peptide Company, Sunnyvale, Calif., USA) was added with 2 ml of hexafluoroisopropanol (HFIP), allowed to stand at room temperature for 3 days, and aliquoted at 100 μl each into tubes. After evaporation of hexafluoroisopropanol (HFIP) using a speed vacuum, 10 μl of an anhydrous DMSO (dimethyl sulfoxide) solution was placed in one of the aliquoted tubes, so as to realize sufficient dissolution, after which 400 μl of phosphate buffer saline (PBS) was added thereto, thus preparing a 25 μM beta-amyloid 1-42 solution.
ICR mice (The Jackson Laboratory, Bar Harbor, Me., USA) were divided into a normal group, a control group and four test groups. The respective test groups were intraperitoneally administered with the peptide of each of Example 1, Example 2, Comparative Example 1, and Comparative Example 2 in amounts of 25 mg/kg, and the control group was treated in the same manner as in the test group, with the exception that an excipient (10% DMSO in saline, 10 ml/kg) was used in lieu of the peptide. After 20 min, the control group and the test groups were intravenously (i.v.) injected through the tail vein with 400 μl of 25 μM beta-amyloid 1-42. Furthermore, the normal group was treated in the same manner as in the control group, with the exception that beta-amyloid 1-42 was not added. 10 min after the tail venous injection of beta-amyloid, about 50 μl of blood was collected from the infraorbital vein of each mouse using a sodium-heparinized capillary tube, after which the mouse was immediately subjected to euthanasia with carbon dioxide (CO2) gas and then the right hemisphere of the mouse was extracted and stored in liquid nitrogen. All the collected blood samples were centrifuged at 13,000 rpm for 10 min. The supernatant was isolated, placed in the prepared tube, and diluted at 1/4000, followed by ELISA (Enzyme-Linked ImmunoSorbent Assay or Enzyme-Linked ImmunoSpecific Assay) ofbeta-amyloid 1-42.
The frozen right hemisphere was added with 3 ml of a RIPA buffer (Radio Immuno Precipitation Assay buffer), sonicated, and centrifuged, after which the supernatant was isolated, followed by protein concentration measurement through BCA assay (bicinchoninic acid assay). BCA assay was performed in accordance with the kit (Thermo Scientific, Waltham, Mass., USA, Cat. No. 23227) protocol. The beta-amyloid 1-42 concentration in the brain was measured through ELISA in a RIPA-homogenate. ELISA was performed in accordance with the kit (IBL International, Hamburg, Germany, Code No. 27711) protocol.

beta-amyloid 1-42 [2] = test: Inhibition of entry of blood beta-amyloid 1-42 into brain I (ELISA of brain and plasma); type: in vivo; conditions: ICR mice; for beta-amyloid 1-42 concentration in the brain: 20 min before i.v. 400 μl of 25 μM beta-amyloid 1-42, brain taken 10 min after
Experimental: The inhibition of entry of blood beta-amyloid 1-42 into the brain by the peptide of Example 1 was experimentally verified. Specifically, in order to evaluate the effect of the peptide of Example 1 on inhibiting the entry of beta-amyloid 1-42 into the brain, which is the cause of Alzheimer's disease, 1 mg of beta-amyloid 1-42 (American Peptide Company, Sunnyvale, Calif., USA) was added with 2 ml of hexafluoroisopropanol (HFIP), allowed to stand at room temperature for 3 days, and aliquoted at 100 μl each into tubes. After evaporation of hexafluoroisopropanol (HFIP) using a speed vacuum, 10 μl of an anhydrous DMSO (dimethyl sulfoxide) solution was placed in one of the aliquoted tubes, so as to realize sufficient dissolution, after which 400 μl of phosphate buffer saline (PBS) was added thereto, thus preparing a 25 μM beta-amyloid 1-42 solution.
ICR mice (The Jackson Laboratory, Bar Harbor, Me., USA) were divided into a normal group, a control group and two test groups. The respective test groups were intraperitoneally administered with the peptide of Example 1 in amounts of 2.5 mg/kg and 25 mg/kg, and the control group was treated in the same manner as in the test group, with the exception that an excipient (10% DMSO in saline, 10 ml/kg) was used in lieu of the peptide of Example 1. After 20 min, the control group and the test groups were intravenously (i.v.) injected through the tail vein with 400 μl of 25 μM beta-amyloid 1-42. Furthermore, the normal group was treated in the same manner as in the control group, with the exception that beta-amyloid 1-42 was not added. […]
The frozen right hemisphere was added with 3 ml of a RIPA buffer (Radio Immuno Precipitation Assay buffer), sonicated, and centrifuged, after which the supernatant was isolated, followed by protein concentration measurement through BCA assay (bicinchoninic acid assay). […] The beta-amyloid 1-42 concentration in the brain was measured through ELISA in a RIPA-homogenate. […]

TNF-alpha = test: Biomarker change in animal models: brain TNF-alpha by ELISA; type: in vivo, DTg mouse; conditions: DTg mice, 50 mg/kg intraperitoneally for 13 weeks; control 1109.91±285.30; p<0.05
Experimental: (§1) In order to evaluate the effect of changing the biomarker using animal models in which an administration period of a total of 13 weeks was terminated in the <Evaluation of learning and memory recovery effects using animal models> test, the following test was conducted. After termination of intraperitoneal administration for a total of 13 weeks, the animal models were subjected to euthanasia using carbon dioxide (CO2) and the brain thereof was immediately extracted. Upon brain extraction, the entire brain was taken out so as not to be scratched, and was then lightly washed with saline solution. […]
(§2) The left hemisphere stored in a deep freezer at −80° C. was placed in a RIPA buffer (Radio Immuno Precipitation Assay buffer) and sonicated, thus preparing a brain homogenate. Thereafter, the amount of protein was measured through BCA assay (BicinChoninic Acid assay). […] The biomarker expression level was measured through ELISA, and ELISA assay was performed in accordance with the kit{Amyloid-beta(1-42) Elisa kit: IBL International, Hamburg, Germany (27711), TNF-alpha ELISA kit: Koma Biotech, Seoul, Korea (K0331186P), GFAP Elisa kit: Millipore Corporation, Billerica, Mass., USA (NS830)} protocol. […]
(§3) The biomarkers measured through ELISA were beta-amyloid 1-42, TNF-alpha, and GFAP (glial fibrillary acidic protein). […]

beta-amyloid 1-42 [3] = test: Biomarker change in animal models: brain beta-amyloid 1-42 by ELISA; type: in vivo, DTg mouse; conditions: DTg mice, 50 mg/kg intraperitoneally for 13 weeks; control 76.03±25.63
Experimental: as §1, §2, §3

[4] = system: double transgenic mouse (DTg mouse) models having induced human Alzheimer's disease; test: Learning and memory recovery, Y-maze test in Alzheimer's model mice; type: in vivo; conditions: 50 mg/kg intraperitoneally once a day, 5 times a week, test 10 weeks after administration, control 49.44±3.88%, P<0.01
Source text: The learning and memory recovery effects of the peptide of Example 1 were experimentally verified. Specifically, in order to evaluate the effect of the peptide of Example 1 on inhibiting learning and memory reduction, which are symptoms of Alzheimer's disease, 30-week-old double transgenic mouse (DTg mouse, Jackson Laboratory, USA) models having induced human Alzheimer's disease, obtained in a manner in which a human-derived gene of beta-amyloid precursor protein APP (APPsw; amyloid mutation) having Swedish mutation and a human-derived gene in the form of exon-9 deletion of a gamma secretase PSI gene were over-expressed in the brain through genetic manipulation, were used for tests.
The test animals were acclimated in an animal room after purchase in accordance with the Guidelines for Experimental Animal Tests and treated in accordance with the approved Animal Experimental Plan. The test conditions were maintained at a temperature of 23±1° C. and a humidity of 50±5%, and the light/dark cycle was 12 hr ([…]). During the testing, animals were free to consume water and feed. […]
The Y-maze test is an experiment to observe the voluntary tendency of an animal to search a new environment using short-term memory ability. […] Spontaneous alternation (%) was calculated using the following equation. […]

[5] = system: GFAP (glial fibrillary acidic protein); test: Biomarker change in animal models: brain GFAP by ELISA; type: in vivo, DTg mouse; conditions: DTg mice, 50 mg/kg intraperitoneally for 13 weeks; control 70.61±26.82
Experimental: as §1, §2, §3

N[C@@H](CC(=O)O)C(=O)NCC(=O)N[C@@H](CCC(=O)O)C(=O)N[C@@H](Cc1ccccc1)C(=O)O [Example 2, DGEF] (H-DGEF-OH; N-terminus and C-terminus assumed)
entry of beta-amyloid into the brain (result in words) (beta-amyloid 1-42 [1]): effectively inhibited
Beta-amyloid 1-42 concentration in brain (beta-amyloid 1-42 [1]): 48.8 ± 14.7 pg/mg protein

DAEF [Comparative Example 1]
entry of beta-amyloid into the brain (result in words) (beta-amyloid 1-42 [1]): did not inhibit
Beta-amyloid 1-42 concentration in brain (beta-amyloid 1-42 [1]): 69.5 ± 6.1 pg/mg protein

DGEFF [Example 1, DGEFF]
beta-amyloid 1-42 concentration in the brain (beta-amyloid 1-42 [2]; peptide 2.5 mg/kg intraperitoneally): 195.5 ± 5.6 pg/mg
beta-amyloid 1-42 concentration in the brain (beta-amyloid 1-42 [2]; peptide 25 mg/kg intraperitoneally): 187.8 ± 2.4 pg/mg
plasma beta-amyloid levels versus control group (beta-amyloid 1-42 [2]; peptide 2.5 and 25 mg/kg intraperitoneally, blood 10 min after i.v. beta-amyloid 1-42): not greatly different
Beta-amyloid 1-42 concentration in brain (beta-amyloid 1-42 [1]): 54.8 ± 8.0 pg/mg protein
TNF-alpha concentration in brain homogenate (TNF-alpha): 798.99±172.90 pg/mg protein
beta-amyloid 1-42 concentration in brain homogenate (beta-amyloid 1-42 [3]): 57.56±28.47 ng/mg protein
spontaneous alternation (Y-maze test) [4]: 63.22±2.56%
GFAP concentration in brain homogenate [5]: 47.63±24.92 ng/mg protein

VKMDAEFR [Comparative Example 2]
entry of beta-amyloid into the brain (result in words) (beta-amyloid 1-42 [1]): did not inhibit
Beta-amyloid 1-42 concentration in brain (beta-amyloid 1-42 [1]): 87.6 ± 14.9 pg/mg protein
